How the values were obtained:
[1] = cell cytotoxicity in a cell viability assay (CC50); type: cell-based; details: concentration required for 50% cell survival
Excerpt: As used herein, “CC50,” is intended to refer to the cell cytotoxicity to the concentration of a substance (e.g., a compound or a drug) that is required for 50% cell survival in a cell viability assay in vitro.

CHIKV = test: antiviral activity against CHIKV (VTR and EC90); type: cell-based; details: Chikungunya virus; for log reduction at 10 µM: read-out: VTR @ 10 μM (logs)
Excerpt: As used herein, “EC90,” is intended to refer to the concentration of a substance (e.g., a compound or a drug) that is required for 90% agonism of a biological process, or component of a process, including a protein, subunit, organelle, ribonucleoprotein, etc. In one aspect, an EC90 can refer to the concentration of a substance that is required for 90% agonism in vivo, as further defined elsewhere herein. In a further aspect, […].

Compound | CC50 [1] [µM] | EC90 (CHIKV) [µM] | log reduction at 10 µM (CHIKV)
CSc1ncccc1C(=O)Nc1nc(-c2cccc(-c3ccccc3)c2)cs1 [Compound 1, N-(4-([1,1′-Biphenyl]-3-yl)thiazol-2-yl)-2-(methylthio)nicotinamide] | > 40 | 0.38 | 7.82
COC(=O)c1ccc(-c2cccc(-c3csc(NC(=O)c4cccnc4SC)n3)c2)cc1 [Compound 23, Methyl 3′-(2-(2-(methylthio)nicotinamido)thiazol-4-yl)-[1,1′-biphenyl]-4-carboxylate] | > 40 | 0.822 | 8.69
CC(C)(C)c1ccc(C(=O)Nc2nc(-c3cccc(Nc4ccc(C#N)cc4)c3)cs2)nc1 [Compound 41, 5-(Tert-Butyl)-N-(4-(3-((4-cyanophenyl)amino)phenyl)thiazol-2-yl)picolinamide] | > 40 | > 10 | 0.82
CSc1ncccc1C(=O)Nc1nc(-c2cccc(-c3ccncc3)c2)cs1 [Compound 3, 2-(Methylthio)-N-(4-(3-(pyridin-4-yl)phenyl)thiazol-2-yl)nicotinamide] | > 40 |  | < 1
CSc1ncccc1C(=O)Nc1nc(-c2cc(F)cc(-c3ccc(C#N)cc3)c2)cs1 [Compound 19, N-(4-(4′-Cyano-5-fluoro-[1,1′-biphenyl]-3-yl)thiazol-2-yl)-2-(methylthio)nicotinamide] | > 30 | 0.19 | 6.1
CSc1ncccc1C(=O)Nc1nc(-c2cccc(-c3ccc(C(N)=O)cc3)c2)cs1 [Compound 25, N-(4-(4′-Carbamoyl-[1,1′-biphenyl]-3-yl)thiazol-2-yl)-2-(methylthio)nicotinamide] | 17.9 | 0.21 | 2.43
CSc1ncccc1C(=O)Nc1nc(-c2cccc(Nc3ccc(C)c(C#N)c3)c2)cs1 [Compound 48, N-(4-(3-((3-cyano-4-methylphenyl)amino)phenyl)thiazol-2-yl)-2-(methylthio)nicotinamide] | > 40 | 0.89 | 4.52
CSc1ncccc1C(=O)Nc1nc(-c2cccc(N3CCN(S(C)(=O)=O)CC3)c2)cs1 [Compound 33, N-(4-(3-(4-(methylsulfonyl)piperazin-1-yl)phenyl)thiazol-2-yl)-2-(methylthio)nicotinamide] | > 40 |  | 2.04
N#Cc1ccc(Nc2cccc(-c3csc(NC(=O)C45CC(C(=O)O)(C4)C5)n3)c2)cc1 [Compound 42, 3-((4-(3-((4-Cyanophenyl)amino)phenyl)thiazol-2-yl)carbamoyl)bicyclo[1.1.1]pentane-1-carboxylic Acid] | > 40 | > 10 | 0
CC(C)(C)c1ccc(C(=O)Nc2nc(-c3cccc(-c4ccc(CN)cc4)c3)cs2)cc1 [Compound 27, N-(4-(4′-(Aminomethyl)-[1,1′-biphenyl]-3-yl)thiazol-2-yl)-4-(tert-butyl)benzamide] | 9.02 | 1.27 | 5.24
CSc1ncccc1C(=O)Nc1nc(-c2cc(-c3ccc(C#N)cc3)ccc2F)cs1 [Compound 17, N-(4-(4′-Cyano-4-fluoro-[1,1′-biphenyl]-3-yl)thiazol-2-yl)-2-(methylthio)nicotinamide] | 25 | 0.34 | 5.75
CSc1ncccc1C(=O)Nc1nc(-c2cccc(N3CCNCC3)c2)cs1 [Compound 31, 2-(Methylthio)-N-(4-(3-(piperazin-1-yl)phenyl)thiazol-2-yl)nicotinamide] | > 30 | 9.1 | 8.69
CSc1ncccc1C(=O)Nc1nc(-c2cccc(Nc3ccc(C#N)cn3)c2)cs1 [Compound 51, N-(4-(3-((5-cyanopyridin-2-yl)amino)phenyl)thiazol-2-yl)-2-(methylthio)nicotinamide] | > 40 | 4.84 | 2.16
CSc1ncccc1C(=O)Nc1nc(-c2cccc(-n3ccnc3)c2)cs1 [Compound 29, N-(4-(3-(1H-imidazol-1-yl)phenyl)thiazol-2-yl)-2-(methylthio)nicotinamide] | > 40 | 0.27 | 1.39
COc1ncc(-c2cccc(-c3csc(NC(=O)c4cccnc4SC)n3)c2)cn1 [Compound 28, N-(4-(3-(2-Methoxypyrimidin-5-yl)phenyl)thiazol-2-yl)-2-(methylthio)nicotinamide] | > 40 |  | 2.52
CSc1ncccc1C(=O)Nc1nc(-c2cccc(Oc3ccccc3)c2)cs1 [Compound 36, 2-methylsulfanyl-N-[4-(3-phenoxyphenyl)thiazol-2-yl]pyridine-3-carboxamide] | > 40 |  | 4.87

Compound | CC50 [1] [µM] | EC90 (CHIKV) [µM] | log reduction at 10 µM (CHIKV)
CSc1ncccc1C(=O)Nc1nc(-c2cccc(Nc3ccc(CN)cc3)c2)cs1 [Compound 45, N-(4-(3-((4-(aminomethyl)phenyl)amino)phenyl)thiazol-2-yl)-2-(methylthio)nicotinamide] | 12.8 | 5.8 | 1.23
CSc1ncccc1C(=O)Nc1nc(-c2cccc(-c3ccc(CN)cc3)c2)cs1 [Compound 26, N-(4-(4′-(aminomethyl)-[1,1′-biphenyl]-3-yl)thiazol-2-yl)-2-(methylthio)nicotinamide] | > 40 | 0.75 | 8.75
CSc1ncccc1C(=O)Nc1nc(-c2cccc(Nc3ccccc3C#N)c2)cs1 [Compound 39, N-(4-(3-((2-Cyanophenyl)amino)phenyl)thiazol-2-yl)-2-(methylthio)nicotinamide] | > 40 | 0.5 | 5.23
CSc1ncccc1C(=O)Nc1nc(-c2cncc(-c3ccc(C#N)cc3)c2)cs1 [Compound 12, N-(4-(5-(4-Cyanophenyl)pyridin-3-yl)thiazol-2-yl)-2-(methylthio)nicotinamide] | > 40 |  | < 1
CSc1ncccc1C(=O)Nc1nc(-c2cccc(-c3ccc(C#N)cc3)n2)cs1 [Compound 13, N-(4-(6-(4-Cyanophenyl)pyridin-2-yl)thiazol-2-yl)-2-(methylthio)nicotinamide] | 16.3 |  | 2.72
COC(=O)C12CC(C(=O)Nc3nc(-c4cccc(Nc5ccc(C#N)cc5)c4)cs3)(C1)C2 [Compound 43, Methyl 3-((4-(3-((4-cyanophenyl)amino)phenyl)thiazol-2-yl)carbamoyl)bicyclo[1.1.1]pentane-1-carboxylate] | 13 | 10.1 | 0.74
CSc1ncccc1C(=O)Nc1nc(-c2cccc(-c3ccc(C#N)cn3)c2)cs1 [Compound 14, N-(4-(3-(5-Cyanopyridin-2-yl)phenyl)thiazol-2-yl)-2-(methylthio)nicotinamide] | > 40 | 0.62 | 6
CSc1ncccc1C(=O)Nc1nc(-c2cccc(-c3ccc(C#N)c(O)c3)c2)cs1 [Compound 22, N-(4-(4′-Cyano-3′-hydroxy-[1,1′-biphenyl]-3-yl)thiazol-2-yl)-2-(methylthio)nicotinamide] | > 30 | 1.6 | 8.5
CC(C)(C)c1ccc(C(=O)Nc2nc(-c3cccc(-c4ccc(C#N)cc4)c3)cs2)cc1 [Compound 9, 4-(Tert-butyl)-N-(4-(4′-cyano-[1,1′-biphenyl]-3-yl)thiazol-2-yl)benzamide] | > 40 | 0.28 | 4.68
COc1ccc(-c2ccc(C#N)cc2)cc1-c1csc(NC(=O)c2cccnc2SC)n1 [Compound 18, N-(4-(4′-Cyano-4-methoxy-[1,1′-biphenyl]-3-yl)thiazol-2-yl)-2-(methylthio)nicotinamide] | > 40 |  | 1.73
CSc1ncccc1C(=O)Nc1nc(-c2cccc(N3CCOCC3)c2)cs1 [Compound 34, 2-(Methylthio)-N-(4-(3-morpholinophenyl)thiazol-2-yl)nicotinamide] | > 40 |  | 1.88
COC(=O)c1cc(-c2ccc(C#N)cc2)cc(-c2csc(NC(=O)c3cccnc3SC)n2)c1 [Compound 20, Methyl 4′-cyano-5-(2-(2-(methylthio)nicotinamido)thiazol-4-yl)-[1,1′-biphenyl]-3-carboxylate] | 17.6 |  | 3.23
CSc1ncccc1C(=O)Nc1nc(-c2cccc(N3CCN(C(C)=O)CC3)c2)cs1 [Compound 32, N-(4-(3-(4-acetylpiperazin-1-yl)phenyl)thiazol-2-yl)-2-(methylthio)nicotinamide] | > 40 |  | < 1
COc1c(F)cc(C(=O)Nc2nc(-c3cccc(-c4ccc(C#N)cc4)c3)cs2)cc1F [Compound 10, N-(4-(4′-Cyano-[1,1′-biphenyl]-3-yl)thiazol-2-yl)-3,5-difluoro-4-methoxybenzamide] | > 30 | 0.31 | 7.6
CC(C)(C#N)c1ccc(C(=O)Nc2nc(-c3cccc(Nc4ccc(C#N)cc4)c3)cs2)cc1 [Compound 44, N-(4-(3-((4-cyanophenyl)amino)phenyl)thiazol-2-yl)-4-(2-cyanopropan-2-yl)benzamide] | > 40 | 0.98 | 2.65
CSc1ncccc1C(=O)Nc1nc(-c2cccc(-c3ccc(C#N)cc3)c2)cs1 [Compound 4, N-(4-(4′-Cyano-[1,1′-biphenyl]-3-yl)thiazol-2-yl)-2-(methylthio)nicotinamide] | > 40 | 0.31 | 4.73

From patent US20200399264A1, “4-SUBSTITUTED-2-THIAZOLE AMIDES AS ANTIVIRAL AGENTS” (Southern Research Institute, priority 2019, published 2020)
